Source: US6664393B2 (priority 1999, dated 2003)
Where two headings read alike, the source gives them in different places.

Columns and labels:
[1] = target: T1, factor VIIa/tissue factor (Homo sapiens, UniProt P08709); assay: Factor VIIa assay (chromogenic, substrate S-2288); format: biochemical
T1 construct: 25 μl human factor VIIa and TF (5 nM and 10 nM, respective final concentrations)
Experimental: (§1) Purified enzymes are used in chromogenic assays.
(§2) Ki=IC50/{1+(substrate concentration/Km)}
Kinetic assays were conducted at 25° C. in half-area microtiter plates (Costar Corp., Cambridge, Mass.) using a kinetic plate reader (Molecular Devices Spectramax 250).

human factor Xa = target: T2, human factor Xa (Homo sapiens, UniProt P00742); assay: Factor Xa assay (chromogenic, substrate S-2765); format: biochemical
T2 construct: purchased Enzyme Research Laboratories, Inc; South Bend, Ind
Experimental: as §1, §2
The assay was performed by pre-incubating the compound of interest of formula I plus enzyme for 10 min. The assay was then initiated by adding substrate to obtain a final volume of 100 μl. The initial velocity of chromogenic substrate hydrolysis was measured by the change in absorbance at 405 nm using a Bio-tek Instruments kinetic plate reader (Ceres UV9OOHDi) at 25° C. during the linear portion of the time course (usually 1.5 min after addition of substrate).

[2] = inhibition constant for inhibition of factor VIIa, 5 nM factor VIIa and 10 nM TF, 25° C., 500 μM substrate, read-out: Ki (FVIIa)
[3] = inhibition constant for inhibition of factor Xa, 25° C., 0.5 nM enzyme, 140 μM substrate, read-out: Ki (FXa)

T1 sequence (P08709 61-212): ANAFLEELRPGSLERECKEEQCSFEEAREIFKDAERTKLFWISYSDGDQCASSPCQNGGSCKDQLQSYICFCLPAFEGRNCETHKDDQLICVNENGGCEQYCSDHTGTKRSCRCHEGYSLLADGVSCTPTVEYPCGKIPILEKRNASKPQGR
T1 sequence (P08709 213-466): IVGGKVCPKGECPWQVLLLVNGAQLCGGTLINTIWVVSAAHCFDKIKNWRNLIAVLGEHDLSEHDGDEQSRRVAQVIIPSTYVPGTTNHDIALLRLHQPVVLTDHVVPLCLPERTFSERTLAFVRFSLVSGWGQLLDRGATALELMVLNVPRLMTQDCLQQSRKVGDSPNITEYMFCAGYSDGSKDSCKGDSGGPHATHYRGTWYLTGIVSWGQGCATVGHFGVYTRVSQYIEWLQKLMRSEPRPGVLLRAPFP
T1 sequence (P13726 33-295, further chain): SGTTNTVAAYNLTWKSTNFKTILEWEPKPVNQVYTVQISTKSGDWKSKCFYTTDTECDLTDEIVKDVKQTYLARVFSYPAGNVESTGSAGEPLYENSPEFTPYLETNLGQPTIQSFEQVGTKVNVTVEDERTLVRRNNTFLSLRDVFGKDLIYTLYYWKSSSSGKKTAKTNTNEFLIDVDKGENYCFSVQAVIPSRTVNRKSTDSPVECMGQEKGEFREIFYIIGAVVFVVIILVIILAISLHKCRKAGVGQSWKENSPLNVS
T2 sequence (P00742 235-488 limits assumed): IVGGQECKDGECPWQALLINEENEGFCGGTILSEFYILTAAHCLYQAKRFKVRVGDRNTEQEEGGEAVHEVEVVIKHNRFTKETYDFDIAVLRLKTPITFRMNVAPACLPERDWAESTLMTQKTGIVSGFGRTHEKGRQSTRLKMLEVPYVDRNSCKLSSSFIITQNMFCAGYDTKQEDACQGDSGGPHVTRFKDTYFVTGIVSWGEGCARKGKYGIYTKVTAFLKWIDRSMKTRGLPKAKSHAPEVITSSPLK
T2 sequence (P00742 41-179 limits assumed): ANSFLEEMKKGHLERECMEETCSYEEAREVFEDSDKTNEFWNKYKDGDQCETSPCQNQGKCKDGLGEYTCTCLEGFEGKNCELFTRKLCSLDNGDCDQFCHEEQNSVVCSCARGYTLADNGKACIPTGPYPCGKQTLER

## COc1ccc(C(=O)N[C@@H](CCCNC(=N)N)C(=O)N(C)C)cc1OCCc1ccc(Cl)cc1Cl [Example 48]
[1]; [2]
  Ki: > 200000 nM
Human factor Xa
  Ki: 560 nM

## Cc1cc(C)c(CCOc2cc(C(=O)N[C@@H](CCCNC(=N)N)C(N)=O)nc3ccccc23)c(C)c1 [Example 32]
[1]
  Ki: 13000 nM
Human factor Xa
  Ki: 13000 nM

## N=C(N)NCCC[C@H](NC(=O)c1cc(O)c(Br)c(OCCc2ccc(Cl)cc2Cl)c1)C(N)=O [Example 5, (S)-4-Bromo-N-(1-carbamoyl-4-guanidinobutyl)-3-[2-(2,4-dichlorophenyl)-ethoxy]-5-hydroxybenzamide]
[1]; [2]
  Ki: 58000 nM
Human factor Xa
  Ki: 18 nM

## N=C(N)NCCC[C@H](NC(=O)c1ccc([N+](=O)[O-])c(OCCc2ccc(Cl)cc2Cl)c1)C(N)=O [Example 1, (S)-4-Nitro-N-(1-carbamoyl-4-guanidinobutyl)-3-[2-(2,4-dichlorophenyl)ethoxy]benzamide]
[1]; [2]
  Ki: 188000 nM
Human factor Xa
  Ki: 48 nM

## N=C(N)NCCC[C@H](NC(=O)c1cc(O)c(Br)c(OCCc2ccc(Cl)cc2Cl)c1)C(=O)O [Example 46]
[1]; [2]
  Ki: > 200000 nM
Human factor Xa
  Ki: 59 nM

## N=C(N)NCCC[C@H](NC(=O)c1cccc(OCCc2ccc(Cl)cc2)c1)C(N)=O [Example 8]
Human factor Xa
  Ki: 1100 nM

## N=C(N)NCCC[C@H](NC(=O)c1cc(OCCc2ccc(Cl)cc2Cl)c2ccccc2n1)C(N)=O [Example 34]
[1]; [2]
  Ki: 9800 nM
Human factor Xa
  Ki: 750 nM

## Cc1ccc(CCOc2cccc(C(=O)N[C@@H](CCCNC(=N)N)C(N)=O)c2)cc1 [Example 16]
Human factor Xa
  Ki: 6150 nM

## Cc1c(O)cc(C(=O)N[C@@H](CCCNC(=N)N)C(N)=O)cc1OCCc1ccc(Cl)cc1Cl [Example 6, (S)-N-(1-Carbamoyl-4-guanidinobutyl)-3-[2-(2,4-dichlorophenyl)ethoxy]-5-hydroxy-4-methylbenzamide]
[1]; [2]
  Ki: 7500 nM
Human factor Xa
  Ki: 38 nM

## CCCOC(=O)[C@H](CCCNC(=N)N)NC(=O)c1cc(O)c(Br)c(OCCc2ccc(Cl)cc2Cl)c1 [Example 47]
[1]; [2]
  Ki: > 200000 nM
Human factor Xa
  Ki: 21 nM

## N=C(N)NCCC[C@H](NC(=O)c1ccc([N+](=O)[O-])c(OCCc2ccc(Cl)cc2)c1)C(N)=O [Example 11]
Human factor Xa
  Ki: 192 nM

## N=C(N)NCCC[C@H](NC(=O)c1ccc(NC(=O)CCC(=O)O)c(OCCc2ccc(Cl)cc2Cl)c1)C(N)=O [Example 4, (S)-N-{4-(1-Carbamoyl-4-guanidinobutylcarbamoyl)-2-[2-(2,4-dichlorophenyl)ethoxy]phenyl}succinamic Acid]
[1]; [2]
  Ki: 42000 nM
Human factor Xa
  Ki: 354 nM

## N=C(N)NCCC[C@H](NC(=O)c1cc(O)c(Br)c(OCCc2ccc(Cl)cc2Cl)c1)C(=O)NCc1cccnc1 [Example 39, (S)-4-Bromo-3-[2-(2,4-dichlorophenyl)ethoxy]-N-{4-guanidino-1-[(pyridin-3-ylmethyl)carbamoyl]butyl}-5-hydroxybenzamide]
[1]; [2]
  Ki: > 200000 nM
Human factor Xa
  Ki: 445 nM

## CN(C)C(=O)[C@H](CCCNC(=N)N)NC(=O)c1cc(O)c(Br)c(OCCc2ccc(Cl)cc2Cl)c1 [Example 45]
[1]; [2]
  Ki: > 200000 nM
Human factor Xa
  Ki: 31 nM

## N=C(N)NCCC[C@H](NC(=O)c1ccc(N)c(OCCc2ccc(Cl)cc2Cl)c1)C(N)=O [Example 2, (S)-4-Amino-N-(-carbamoyl-4-guanidinobutyl)-3-[2-(2,4-dichlorophenyl)ethoxy]benzamide]
Human factor Xa; [3]
  Ki: 76 nM

## CC(=O)Nc1ccc(C(=O)N[C@@H](CCCNC(=N)N)C(N)=O)cc1OCCc1ccc(Cl)cc1Cl [Example 3, (S)-4-Acetylamino-N-(1-carbamoyl-4-guanidinobutyl)-3-[2-(2,4-dichlorophenyl)ethoxy]benzamide]
Human factor Xa; [3]
  Ki: 670 nM

## CCCOC(=O)[C@H](CCCNC(=N)N)NC(=O)c1ccc(OC)c(OCCc2ccc(Cl)cc2Cl)c1 [Example 50]
[1]; [2]
  Ki: > 200000 nM
Human factor Xa
  Ki: 729 nM
